# T1: OCT3 (SLC22A3) (Mus musculus, UniProt Q9WTW5)
# T1 sequence (Q9WTW5 whole entry): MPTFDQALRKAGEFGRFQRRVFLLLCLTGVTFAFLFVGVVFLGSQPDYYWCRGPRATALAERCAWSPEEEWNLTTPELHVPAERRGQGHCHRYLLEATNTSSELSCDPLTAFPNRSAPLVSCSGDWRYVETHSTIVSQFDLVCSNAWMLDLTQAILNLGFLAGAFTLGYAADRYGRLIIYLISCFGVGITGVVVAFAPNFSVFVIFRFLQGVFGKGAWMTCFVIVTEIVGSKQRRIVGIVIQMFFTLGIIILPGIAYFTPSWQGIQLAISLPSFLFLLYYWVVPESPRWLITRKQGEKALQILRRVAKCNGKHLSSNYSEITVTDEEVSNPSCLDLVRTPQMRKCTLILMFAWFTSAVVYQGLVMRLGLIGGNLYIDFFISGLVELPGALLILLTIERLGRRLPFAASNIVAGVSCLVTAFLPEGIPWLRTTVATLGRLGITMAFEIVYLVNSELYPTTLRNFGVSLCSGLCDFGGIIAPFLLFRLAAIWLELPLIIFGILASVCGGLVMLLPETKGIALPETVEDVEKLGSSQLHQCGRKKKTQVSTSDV
# T2: Solute carrier family 22 member 3 (Mus musculus, UniProt Q9WTW5)
# T2 sequence (Q9WTW5 whole entry): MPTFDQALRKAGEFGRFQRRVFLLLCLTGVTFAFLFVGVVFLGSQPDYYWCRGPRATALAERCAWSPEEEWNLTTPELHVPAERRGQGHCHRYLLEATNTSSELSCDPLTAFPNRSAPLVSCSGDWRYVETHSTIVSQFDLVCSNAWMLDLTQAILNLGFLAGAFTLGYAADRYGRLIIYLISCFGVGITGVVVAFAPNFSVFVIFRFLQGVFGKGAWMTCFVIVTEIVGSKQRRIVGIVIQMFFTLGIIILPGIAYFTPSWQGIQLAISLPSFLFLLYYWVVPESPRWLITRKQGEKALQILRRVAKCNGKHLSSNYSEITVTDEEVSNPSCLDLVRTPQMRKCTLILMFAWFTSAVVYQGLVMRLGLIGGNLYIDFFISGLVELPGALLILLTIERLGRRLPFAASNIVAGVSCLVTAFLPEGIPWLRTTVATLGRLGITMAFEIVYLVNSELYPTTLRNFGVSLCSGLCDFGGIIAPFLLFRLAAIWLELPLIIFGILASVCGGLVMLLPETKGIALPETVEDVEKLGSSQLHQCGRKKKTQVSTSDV
# T3: Solute carrier family 22 member 3 (Homo sapiens, UniProt O75751)
# T3 sequence (O75751 whole entry): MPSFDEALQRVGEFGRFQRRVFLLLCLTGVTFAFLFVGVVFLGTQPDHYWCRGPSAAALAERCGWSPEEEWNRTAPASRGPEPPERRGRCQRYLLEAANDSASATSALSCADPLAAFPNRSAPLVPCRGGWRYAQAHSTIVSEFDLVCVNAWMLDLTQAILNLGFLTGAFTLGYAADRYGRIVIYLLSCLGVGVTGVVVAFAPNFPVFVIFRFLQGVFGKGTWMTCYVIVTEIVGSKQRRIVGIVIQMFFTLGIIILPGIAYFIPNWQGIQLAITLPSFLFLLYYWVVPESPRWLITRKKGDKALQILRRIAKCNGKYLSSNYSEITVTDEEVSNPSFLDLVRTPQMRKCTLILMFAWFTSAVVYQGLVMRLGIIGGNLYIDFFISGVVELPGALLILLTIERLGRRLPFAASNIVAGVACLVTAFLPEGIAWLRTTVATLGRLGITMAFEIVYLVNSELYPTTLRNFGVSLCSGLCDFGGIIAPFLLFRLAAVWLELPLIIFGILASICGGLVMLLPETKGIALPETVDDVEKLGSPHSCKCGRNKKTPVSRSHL
# B1: Solute carrier family 22 member 3 (Mus musculus) (protein)
# chain: MPTFDQALRKAGEFGRFQRRVFLLLCLTGVTFAFLFVGVVFLGSQPDYYWCRGPRATALAERCAWSPEEEWNLTTPELHVPAERRGQGHCHRYLLEATNTSSELSCDPLTAFPNRSAPLVSCSGDWRYVETHSTIVSQFDLVCSNAWMLDLTQAILNLGFLAGAFTLGYAADRYGRLIIYLISCFGVGITGVVVAFAPNFSVFVIFRFLQGVFGKGAWMTCFVIVTEIVGSKQRRIVGIVIQMFFTLGIIILPGIAYFTPSWQGIQLAISLPSFLFLLYYWVVPESPRWLITRKQGEKALQILRRVAKCNGKHLSSNYSEITVTDEEVSNPSCLDLVRTPQMRKCTLILMFAWFTSAVVYQGLVMRLGLIGGNLYIDFFISGLVELPGALLILLTIERLGRRLPFAASNIVAGVSCLVTAFLPEGIPWLRTTVATLGRLGITMAFEIVYLVNSELYPTTLRNFGVSLCSGLCDFGGIIAPFLLFRLAAIWLELPLIIFGILASVCGGLVMLLPETKGIALPETVEDVEKLGSSQLHQCGRKKKTQVSTSDV
# Tests used:
# OCT3 (SLC22A3) [1] = biological target: T1, OCT3 (SLC22A3); test: TP_TRANSPORTER: inhibition of TEA uptake (TEA: 20 uM, MPTP: 5000 uM) in OCT3-expressing HRPE cells; assay type: functional, cell-based; settings: human, HRPE cells that express OCT3, probe TEA
# OCT3 (SLC22A3) [2] = biological target: T1, OCT3 (SLC22A3); test: TP_TRANSPORTER: inhibition of TEA uptake (TEA: 20 uM, MPP+: 5000 uM) in OCT3-expressing HRPE cells; assay type: functional, cell-based; settings: human, HRPE cells that express OCT3, probe TEA
# [3] = biological target: T2, Solute carrier family 22 member 3; test: TP_TRANSPORTER: uptake in Xenopus laevis oocytes; assay type: functional, cell-based; settings: oocyte
# [4] = biological target: T3, Solute carrier family 22 member 3; test: TP_TRANSPORTER: inhibition of MPP+ uptake in OCT3-expressing HRPE cells; assay type: functional, cell-based
# OCT3 (SLC22A3) [5] = biological target: T1, OCT3 (SLC22A3); test: in vitro; settings: human, HRPE cells that express OCT3, probe TEA
# OCT3 (SLC22A3) [6] = biological target: T1, OCT3 (SLC22A3); test: in vitro; settings: human, HRPE cells that express OCT3, probe TEA; remark: listed apart in the source
# [7] = biological target: T2, Solute carrier family 22 member 3; test: TP_TRANSPORTER: inhibition of TEA uptake (TEA: 20 uM, Guanidine: 5000 uM) in OCT3-expressing HRPE cells; assay type: functional, cell-based; settings: human
# [8] = biological target: T2, Solute carrier family 22 member 3; test: TP_TRANSPORTER: inhibition of TEA uptake (TEA: 20 uM, NMN: 5000 uM) in OCT3-expressing HRPE cells; assay type: functional, cell-based; settings: human
# [9] = biological target: T3, Solute carrier family 22 member 3; test: TP_TRANSPORTER: uptake in OCT3-expressing HRPE cells; assay type: functional, cell-based
# [10] = substrate: CC[N+](CC)(CC)CC; test: cells, lysate or membranes named
molecule,measurement,setting,value
CN1CC=C(c2ccccc2)CC1,inhibition at 5000 µM,OCT3 (SLC22A3) [1],> 90%
C[n+]1ccc(-c2ccccc2)cc1,inhibition at 5000 µM,OCT3 (SLC22A3) [2],> 90%
same,Activity,[3],substrate [+]
same,Ki,[4],54 µM
CN/C(=N/CCSCc1nc[nH]c1C)NC#N [CIMETIDINE],inhibition at 5000 µM,OCT3 (SLC22A3) [5],> 90%
Clc1cccc(Cl)c1N=C1NCCN1 [CLONIDINE],Ki,[4],373 µM
same,inhibition at 5000 µM,OCT3 (SLC22A3) [6],> 90%
CNCCCN1c2ccccc2CCc2ccccc21 [DESIPRAMINE],Ki,[4],14 µM
N=C(N)N [GUANIDINE],Inhibition,[7],inhibitor [60-70 % inhibition]
same,Activity,[3],substrate [+]
same,Ki,[4],6200 µM
CN(C)CCCN1c2ccccc2CCc2ccccc21 [IMIPRAMINE],Ki,[4],42 µM
CNC(=O)c1cccnc1 [NICOTINYL METHYLAMIDE],Inhibition,[8],inhibitor [60-70 % inhibition]
CCN(CC)CCNC(=O)c1ccc(N)cc1 [PROCAINAMIDE],Ki,[4],738 µM
CC[N+](CC)(CC)CC [TETRYLAMMONIUM],Activity,[9],substrate [+]
same,Activity,[3],substrate [+]
same,Ki,[4],1370 µM
B1,Km,[10],1900 µM

# — ChEMBL document CHEMBL2073845, “Structure, function, and regional distribution of the organic cation transporter OCT3 in the kidney” (Am J Physiol Renal Physiol, 2000)
